From patent publication US5283271A, “3,5-diphenyl or substituted 3,5-diphenyl-1-hydroxy-1,2-dihydroimidazole-2-thiones” (Olin Corporation, priority 1992, dated 1994)
In brackets after ≈: the same amount, converted by molar mass. Where a name gives a salt, the structure may show the parent alone. Read-outs that look alike come from different tables or passages of the source.

Experiments:
Format in all cases: cell-based
Aureobasidium pullulans = assay: Minimum Inhibitory Concentration (MIC), Aureobasidium pullulans
Experimental: (§1) Determination of the Minimum Inhibitory Concentrations (MIC's) for the Compounds Prepared in Part A
(§2) Solutions of the experimental compounds in dimethyl sulfoxide and an aqueous solution of sodium pyrithione were serially diluted in nutrient broth (Tryptic Soy Broth for bacteria and Sabouraud Dextrose Broth for fungi) in microtiter plates. Equal volumes of a broth supension of bacteria (10^6 CFU/ml) or fungi (10^5 cells or spores/ml) were added to each dilution, and the plates were incubated at 37° C. (bacteria and yeast) or 28° C. (molds). Bacteria, yeast and molds were incubated two, five and seven days respectively before determining the highest inhibitory dilution.

S. aureus = assay: Minimum Inhibitory Concentration (MIC), S. aureus; conditions: Staphylococcus aureus, 48 h, Tryptic Soy Broth, 37° C., two days
Experimental: as §1, §2

E. Coli = assay: Minimum Inhibitory Concentration (MIC), E. Coli; conditions: Escherichia coli, 48 h, Tryptic Soy Broth, 37° C., two days
Experimental: as §1, §2

Fusarium = assay: Minimum Inhibitory Concentration (MIC), Fusarium; conditions: 168 h, Sabouraud Dextrose Broth, 28° C., seven days (molds)
Experimental: as §1, §2

Aspergillins niger = assay: Minimum Inhibitory Concentration (MIC), Aspergillins niger; conditions: 168 h
Experimental: as §1, §2

Candida albicans = assay: Minimum Inhibitory Concentration (MIC), Candida albicans; conditions: 120 h
Experimental: as §1, §2

[1] = Sabouraud Dextrose Broth, read-out: MIC
[2] = Aspergillins niger, Sabouraud Dextrose Broth, 28° C., seven days (molds), read-out: MIC
[3] = Sabouraud Dextrose Broth, 37° C., five days (yeast), read-out: MIC

Structure (SMILES)	MIC (Aureobasidium pullulans; [1]) [µg/mL]	MIC (S. aureus) [µg/mL]	MIC (E. Coli) [µg/mL]	MIC (Fusarium) [µg/mL]	MIC (Aspergillins niger; [2]) [µg/mL]	MIC (Candida albicans; [3]) [µg/mL]	MIC (Aureobasidium pullulans) [µg/mL]	MIC (Aspergillins niger) [µg/mL]	MIC (Candida albicans) [µg/mL]
On1c(-c2ccccc2)cn(-c2ccccc2)c1=S [Compound 1, 3,5-diphenyl-1-hydroxy-1,2-dihydroimidazole-2-thione]	2 (≈ 7.45 µM)	256 (≈ 954 µM)	64 (≈ 239 µM)	16 (≈ 59.6 µM)	8 (≈ 29.8 µM)	2 (≈ 7.45 µM)			
COc1ccc(-n2cc(-c3ccccc3)n(O)c2=S)cc1 [Compound 2, 3-(p-methoxyphenyl)-5-phenyl-1-hydroxy-1,2-dihydroimidazole-2-thione]	8 (≈ 26.8 µM)	2050 (≈ 6860 µM)	32 (≈ 107 µM)	1020 (≈ 3430 µM)	64 (≈ 215 µM)	4 (≈ 13.4 µM)			
COc1ccc(-c2cn(-c3ccccc3)c(=S)n2O)cc1 [Compound 3, 5-(p-Methoxyphenyl)-3-phenyl-1-hydroxy-1,2-dihydroimidazole-2-thione]	16 (≈ 53.6 µM)	32 (≈ 107 µM)	32 (≈ 107 µM)	512 (≈ 1720 µM)	512 (≈ 1720 µM)	2 (≈ 6.7 µM)			
[O-][n+]1ccccc1S [Pyrithione, sodium salt, sodium pyrithione, reference compound]		4 to 8	8 to 32	64 to 128			2 to 32	32 to 128	4 to 16
